Series [1] relates to OS-RC-2 cells having high GGT activity. Put plainly: cells. In kind it is cell-based, human. The following applies: Homo sapiens; OS-RC-2 cells, 10 μM, 6 hours exposure then 3 days incubation; read-out: Cell proliferation inhibitory activity. Here is the method: (§1) After the cells were incubated for 6 hours, the interior of the wells was washed, and after the cells were further incubated for 3 days, the cells were immobilized with methanol and stained using Methylene Blue dye. After staining, the dye was extracted with a 0.3% aqueous solution of hydrochloric acid was extracted, and the light absorbance at 660 nm was measured. For the light absorbance thus obtained, the cell proliferation suppressive activity was evaluated based on the reduction ratio for the light absorbance measured from cells to which the compound was not added.
(§2) By a similar operation, the cell proliferation suppressive activity was evaluated from the light absorbance, using doxorubicin that was not converted to a glutamic acid derivative. The results are shown in FIG. 1 (OS-RC-2 cells having high GGT activity) and FIG. 2 (SK-OV-3 cells having low GGT activity).
(§3) The cell proliferation inhibitory activity of the EHC-bonded glutamic acid derivative according to Synthesis Example 6 was evaluated using OS-RC-2 cells (RIKEN BioResource Center), which are known to have high GGT activity, and SK-OV-3 cells (American Type Culture Collection), which are known to have low GGT activity.
(§4) On a 96-well plate, OS-RC-2 cells having high GGT activity and SK-OV-3 cells having low GGT activity were each inoculated in an amount of 4,000 cells/well and were incubated for one day at 37° C. and 5% CO2, and then the EHC prodrug according to Synthesis Example 6 was added to the cells at a final concentration of 0.0001 to 1 μM. After the cells were incubated for 6 hours, the interior of the wells was washed, and the cells were further incubated for 3 days. After the incubation, the cells were immobilized with methanol and were stained using Methylene Blue dye. After staining, the dye was extracted with a 0.3% aqueous solution of hydrochloric acid, and the light absorbance at 660 nm was measured. The cell proliferation suppressive activity was evaluated based on the reduction ratio for the light absorbance thus obtained, with respect to the light absorbance measured from cells to which the compound was not added.
(§5) By a similar operation, EHC, which was an active ingredient of Synthesis Example 6, was used without modification, and the cell proliferation suppressive activity was evaluated from the light absorbance.

For series [2], the system named is human ovarian cancer SHIN-3 tumors. Put plainly: Test on antitumor effect of Synthesis Example 1, SHIN-3 tumors. It counts as in vivo. The note with it: three times at an interval of 7 days. Here is the method:
By an operation similar to that of Test Example 12, human ovarian cancer SHIN-3 tumors were subcutaneously transplanted into SCID mice, and tumor engraftment was confirmed.
(§6) After the administration, the major axis (L) and the minor axis (W) of a tumor were measured using calipers at an interval of 2 to 3 days, the tumor volume was calculated by the formula: (L×W^2)/2, and the tumor volume change rate from the administration initiation day was determined.

A short description of series [3]: Phosphate buffered physiological saline (PBS) solution stability test. The note with it: PBS, 37° C., after 6.5 hours, HPLC. It counts as physicochemical. Here is the method: 0.148 mL of the doxorubicin-bonded glutamic acid derivative PBS solution was dissolved in 0.148 mL of a PBS solution, and the solution was allowed to react at 37° C.
PBS (0.100 mL) was added to the EHC-bonded glutamic acid derivative solution (0.100 mL), and the mixture was allowed to react at 37° C. The reaction liquid was analyzed by HPLC, and thereby the residual ratio of the EHC-bonded glutamic acid derivative was determined.
PBS (0.117 mL) was added to the camptothecin-bonded glutamic acid derivative solution (0.117 mL), and the mixture was allowed to react at 37° C. The reaction liquid was analyzed by HPLC, and thereby the residual ratio of the glutamic acid derivative was determined.
The reaction liquid was analyzed by HPLC, and thereby the residual ratio of the EHC-bonded glutamic acid derivative was determined.

Series [4] in a line: Test on pharmacokinetics of Synthesis Example 1 (tissue concentrations, OS-RC-2 tumor-bearing mice). The note with it: for Unchanged drug concentration: value after 5 minutes, 5 mg/kg in terms of doxorubicin i.v. In kind it is in vivo, SCID mice. The protocol:
Human renal cell cancer OS-RC-2 tumors that had been subcutaneously subcultured in SCID mice were produced into blocks that measured about 2 mm on each side, and the blocks were subcutaneously transplanted into SCID mice using a trocar.
At time points of 5 minutes, 3 hours, and 24 hours after the administration, various tissues such as blood plasma, heart, liver, bone marrow, and tumor were collected under ether anesthesia.

In series [5] the test system is SK-OV-3 cells having low GGT activity. Put plainly: cells. It counts as cell-based. The note with it: Homo sapiens; SK-OV-3 cells, 10 μM, 6 hours exposure then 3 days incubation; read-out: Cell proliferation inhibitory activity. The protocol: as §1, §2, §3, §4, §5
Series [6] is described as follows: Test on pharmacokinetics of Example 1 (blood plasma). In kind it is in vivo, mice. The following applies: mouse, iv, 10 mg/kg in terms of DXR i.v., read-out: AUC0-6 hr. Unchanged drug (DXR prodrug). The protocol:
At time points of 5 minutes, 1 hour, 3 hours, and 6 hours after administration, blood plasma was collected under ether anesthesia.

Series [7] concerns OS-RC-2 cells having high GGT activity. In kind it is cell-based, human. The note with it: GGsTop 10 μM, compound 0.039 to 10 μM. Here is the method:
OS-RC-2 cells were inoculated by a method similar to that of Test Example 3. […] After the cells were incubated for 6 hours, the interior of the wells was washed, and after the cells were further incubated for 3 days, the cell proliferation suppressive activity was evaluated by a method similar to that of Test Example 3.
By a similar operation, the cell proliferation suppressive activity was evaluated using doxorubicin that was not glutamic acid-derivatized, from the light absorbance of the compound.
The GGT activity dependency of the cell proliferation inhibitory activity of the EHC-bonded glutamic acid derivative according to Synthesis Example 6 was evaluated using OS-RC-2 cells having high GGT activity.
OS-RC-2 cells were inoculated by a method similar to that of Test Example 10. After the cells were incubated for one day, GGsTop (Wako Pure Chemical Industries, Ltd.), which is a GGT inhibitor, was added to the cells at a final concentration of 10 μM, and the cells were incubated for one hour. Subsequently, the EHC-bonded glutamic acid derivative according to Synthesis Example 6 was added to the cells at a final concentration of 0.0001 to 1 μM. After the cells were incubated for 6 hours, the interior of the wells was washed, and after the cells were incubated for 3 days, the cell proliferation suppressive activity was evaluated by a method similar to that of Test Example 10.
By a similar operation, the cell proliferation suppressive activity was evaluated using EHC, which is the active ingredient of Synthesis Example 6, from the light absorbance of the compound.

Series [8] concerns human renal cell cancer OS-RC-2 tumors. Put plainly: Test on antitumor effect of Synthesis Example 1, OS-RC-2 tumors. The note with it: two times at an interval of 14 days. In kind it is in vivo, SCID mice. Here is the method:
By an operation similar to that of Test Example 12, human renal cell cancer OS-RC-2 tumors were subcutaneously transplanted into SCID mice, and tumor engraftment was confirmed.
as §6

The mark [9] stands for this setting: 20 mg/kg-administered group, i.v.

We go through 1 molecule from patent US20200190101A1, “Composition Containing Novel Glutamic Acid Derivative And Block Copolymer, And Use Thereof” (Nippon Kayaku Kabushiki Kaisha, priority 2015, published 2020).

As for `COc1cccc2c1C(=O)c1c(O)c3c(c(O)c1C2=O)C[C@@](O)(C(=O)CO)CC3OC1CC(NC(=O)OCc2ccc(NC(=O)CCC(N)C(=O)O)cc2)C(O)C(C)O1` (stereo partly drawn) [Synthesis Example 1, (((4-((S)-4-amino-4-carboxybutanamide)benzyl)oxy)carbonyl)doxorubicin], the values for the inhibition at 10 µM in series [1] and in series [5] were 76% and 13%, respectively. Moreover, the entries for the “Antitumor effect (relative tumor volume) versus control drug” value in series [2] (setting [9]) and in series [8] (setting [9]) were “antitumor effect that was equivalent to that of the control drug” and “antitumor effect that was equal to the effect of the doxorubicin hydrochloride-administered group (5 mg/kg)”, respectively. Besides, the “Antitumor effect (relative tumor volume)” value in series [2] (5 or 20 mg/kg i.v.) and in series [8] (5 or 20 mg/kg i.v.) was “dose-dependent antitumor effect” each time. Also, the “Stability in PBS solution (release of doxorubicin)” value in series [3] is “did not release doxorubicin in a PBS solution and was chemically stable”. Also, the Unchanged drug concentration in series [4] (Blood plasma) is recorded as 9.36 μg/mL or g; in series [4] (Bone marrow) it was 0.336 μg/mL or g; in series [4] (Heart), 1.63 μg/mL or g; in series [4] (Liver) it was 60.6 μg/mL or g; in series [4] (Tumor), 0.192 μg/mL or g. In addition, the “Concentration of doxorubicin produced, compared to doxorubicin hydrochloride” value in series [4] (blood plasma, liver, bone marrow, and heart (GGT expressed at a low level)) is “low”; in series [4] (tumor (GGT expressed at a high level)), “high”. In series [6], the AUC(0-t) came to 6240 ng·h/mL. For the same molecule, the “Effect of GGT inhibitor on cell proliferation suppressive activity” value in series [7] is given as “completely inhibited the activity”.
